According to ChEMBL document CHEMBL2010754, “Unusual isomeric corniculatolides from mangrove, Aegiceras corniculatum” (J Nat Prod, 2012):
The source made the active and inactive calls. The rule behind the calls is not given here.

Tested on: Aspergillus niger
Assay: Antifungal activity against Aspergillus niger by agar diffusion method
Assay type: functional, organism-based

Question: With `O=C1CCc2ccc(O)c(c2)Oc2ccc(cc2)CCCO1` as the molecule, how does the Activity read?
Answer: The Activity was “inactive”.

Question: How did the Activity turn out when `COc1ccc2cc1Oc1ccc(cc1)CCCOC(=O)CC2` was run?
Answer: The Activity was “inactive”.

Question: Which Activity does the source give for `O=C1CCc2ccc(cc2)Oc2cc(ccc2O)CCCO1` here?
Answer: The Activity was “inactive”.

Question: Which Activity does the source give for `COc1c(O)cc2cc1Oc1ccc(cc1)CCCOC(=O)CC2` here?
Answer: Its Activity is “inactive”.

Question: `COc1ccc2cc1Oc1ccc(cc1)CCC(=O)OCCC2` was tested. Which Activity did it give?
Answer: Its Activity is “inactive”.

Tested on: Micrococcus luteus
Assay: Antibacterial activity against Micrococcus luteus by agar diffusion method
Assay type: functional, organism-based

Question: With `O=C1CCc2ccc(O)c(c2)Oc2ccc(cc2)CCCO1` as the molecule, how does the Activity read?
Answer: Its Activity is “inactive”.

Question: How did the Activity turn out when `COc1ccc2cc1Oc1ccc(cc1)CCCOC(=O)CC2` was run?
Answer: The Activity was “inactive”.

Question: For `O=C1CCc2ccc(cc2)Oc2cc(ccc2O)CCCO1`, which Activity is on record?
Answer: Its Activity is “inactive”.

Question: Which Activity does the source give for `COc1c(O)cc2cc1Oc1ccc(cc1)CCCOC(=O)CC2` here?
Answer: Its Activity is “inactive”.

Question: For `COc1ccc2cc1Oc1ccc(cc1)CCC(=O)OCCC2`, which Activity is on record?
Answer: Its Activity is “inactive”.

Tested on: Aspergillus terreus
Assay: Antifungal activity against Aspergillus terreus by agar diffusion method
Assay type: functional, organism-based

Question: How did the Activity turn out when `O=C1CCc2ccc(O)c(c2)Oc2ccc(cc2)CCCO1` was run?
Answer: The Activity was “inactive”.

Question: Which Activity does the source give for `COc1ccc2cc1Oc1ccc(cc1)CCCOC(=O)CC2` here?
Answer: The Activity was “inactive”.

Question: For `O=C1CCc2ccc(cc2)Oc2cc(ccc2O)CCCO1`, which Activity is on record?
Answer: Its Activity is “inactive”.

Question: With `COc1c(O)cc2cc1Oc1ccc(cc1)CCCOC(=O)CC2` as the molecule, how does the Activity read?
Answer: Its Activity is “inactive”.

Question: `COc1ccc2cc1Oc1ccc(cc1)CCC(=O)OCCC2` was tested. Which Activity did it give?
Answer: Its Activity is “inactive”.

Tested on: Aspergillus flavus
Assay: Antifungal activity against Aspergillus flavus by agar diffusion method
Assay type: functional, organism-based

Question: How did the Activity turn out when `O=C1CCc2ccc(O)c(c2)Oc2ccc(cc2)CCCO1` was run?
Answer: Its Activity is “inactive”.

Question: With `COc1ccc2cc1Oc1ccc(cc1)CCCOC(=O)CC2` as the molecule, how does the Activity read?
Answer: The Activity was “inactive”.

Question: For `O=C1CCc2ccc(cc2)Oc2cc(ccc2O)CCCO1`, which Activity is on record?
Answer: The Activity was “inactive”.

Question: `COc1c(O)cc2cc1Oc1ccc(cc1)CCCOC(=O)CC2` was tested. Which Activity did it give?
Answer: Its Activity is “inactive”.

Question: `COc1ccc2cc1Oc1ccc(cc1)CCC(=O)OCCC2` was tested. Which Activity did it give?
Answer: Its Activity is “inactive”.

Tested on: Escherichia coli
Assay: Antibacterial activity against Escherichia coli by agar diffusion method
Assay type: functional, organism-based

Question: Which Activity does the source give for `O=C1CCc2ccc(O)c(c2)Oc2ccc(cc2)CCCO1` here?
Answer: The Activity was “inactive”.

Question: `COc1ccc2cc1Oc1ccc(cc1)CCCOC(=O)CC2` was tested. Which Activity did it give?
Answer: The Activity was “inactive”.

Question: Which Activity does the source give for `O=C1CCc2ccc(cc2)Oc2cc(ccc2O)CCCO1` here?
Answer: Its Activity is “inactive”.

Question: Which Activity does the source give for `COc1c(O)cc2cc1Oc1ccc(cc1)CCCOC(=O)CC2` here?
Answer: Its Activity is “inactive”.

Question: `COc1ccc2cc1Oc1ccc(cc1)CCC(=O)OCCC2` was tested. Which Activity did it give?
Answer: Its Activity is “inactive”.

Tested on: Klebsiella pneumoniae
Assay: Antibacterial activity against Klebsiella pneumoniae by agar diffusion method
Assay type: functional, organism-based

Question: With `O=C1CCc2ccc(O)c(c2)Oc2ccc(cc2)CCCO1` as the molecule, how does the Activity read?
Answer: Its Activity is “inactive”.

Question: For `COc1ccc2cc1Oc1ccc(cc1)CCCOC(=O)CC2`, which Activity is on record?
Answer: Its Activity is “inactive”.

Question: For `O=C1CCc2ccc(cc2)Oc2cc(ccc2O)CCCO1`, which Activity is on record?
Answer: The Activity was “inactive”.

Question: For `COc1c(O)cc2cc1Oc1ccc(cc1)CCCOC(=O)CC2`, which Activity is on record?
Answer: The Activity was “inactive”.

Question: How did the Activity turn out when `COc1ccc2cc1Oc1ccc(cc1)CCC(=O)OCCC2` was run?
Answer: The Activity was “inactive”.

Tested on: Staphylococcus aureus
Assay: Antibacterial activity against Staphylococcus aureus by agar diffusion method
Assay type: functional, organism-based

Question: Which Activity does the source give for `O=C1CCc2ccc(O)c(c2)Oc2ccc(cc2)CCCO1` here?
Answer: Its Activity is “inactive”.

Question: For `COc1ccc2cc1Oc1ccc(cc1)CCCOC(=O)CC2`, which Activity is on record?
Answer: Its Activity is “inactive”.

Question: With `O=C1CCc2ccc(cc2)Oc2cc(ccc2O)CCCO1` as the molecule, how does the Activity read?
Answer: Its Activity is “inactive”.

Question: With `COc1c(O)cc2cc1Oc1ccc(cc1)CCCOC(=O)CC2` as the molecule, how does the Activity read?
Answer: Its Activity is “inactive”.

Question: Which Activity does the source give for `COc1ccc2cc1Oc1ccc(cc1)CCC(=O)OCCC2` here?
Answer: Its Activity is “inactive”.

Tested on: Bacillus subtilis
Assay: Antibacterial activity against Bacillus subtilis by agar diffusion method
Assay type: functional, organism-based

Question: For `O=C1CCc2ccc(O)c(c2)Oc2ccc(cc2)CCCO1`, which Activity is on record?
Answer: The Activity was “inactive”.

Question: Which Activity does the source give for `COc1ccc2cc1Oc1ccc(cc1)CCCOC(=O)CC2` here?
Answer: The Activity was “inactive”.

Question: With `O=C1CCc2ccc(cc2)Oc2cc(ccc2O)CCCO1` as the molecule, how does the Activity read?
Answer: Its Activity is “inactive”.

Question: With `COc1c(O)cc2cc1Oc1ccc(cc1)CCCOC(=O)CC2` as the molecule, how does the Activity read?
Answer: Its Activity is “inactive”.

Question: Which Activity does the source give for `COc1ccc2cc1Oc1ccc(cc1)CCC(=O)OCCC2` here?
Answer: Its Activity is “inactive”.
